Like-named read-outs stand apart in the source and are kept apart here.
How the values were obtained:
HEK-293 = experiment: Cell viability assay (MTS), HEK-293; format: cell-based; settings: 48 h, mean ± SD
Experimental: (§1) Five thousand cells/well were plated in 96-well plates in growth media and left for attachment for 24 h. The cells were then treated with the respective compounds using varying concentrations for 48 h. At the end of the treatment duration, a solution of MTS [3-(4,5-dimethylthiazol-2-yl)-5-(3-carboxymethoxyphenyl)-2-(4-sulfophenyl)-2H-tetrazolium] and an electron coupling reagent, PES (phenazine ethosulfate) (Promega, Madison, WI, USA) was added to the cells. Then, 15 μL of MTS reagent was added to each well, and the absorbance was assessed at 490 nm with a microplate reader (Dynex Technologies, MRX Revelation; Chantilly, VA, USA) after 1 h incubation with MTS. The data were recorded, and the IC50 value was calculated using non-linear curve regression analysis (Graph pad V8.0, CA, USA).

SKOV-3 = experiment: Cell viability assay (MTS), SKOV-3; format: cell-based, human; settings: 48 h, mean ± SD
Experimental: as §1

FHC = experiment: Cell viability assay (MTS), FHC; format: cell-based; settings: normal fetal human cells, 48 h, mean ± SD
Experimental: as §1

ALDH1A1 = target: T1, ALDH1A1 (Homo sapiens, UniProt P00352); experiment: ALDH isoform-specific enzyme inhibition assay, ALDH1A1; format: biochemical; settings: Acetaldehyde (Substrate); for inhibition at 0.5 µM: 500 nM
T1 construct: purchased R&D systems
T1 sequence (P00352 1-501): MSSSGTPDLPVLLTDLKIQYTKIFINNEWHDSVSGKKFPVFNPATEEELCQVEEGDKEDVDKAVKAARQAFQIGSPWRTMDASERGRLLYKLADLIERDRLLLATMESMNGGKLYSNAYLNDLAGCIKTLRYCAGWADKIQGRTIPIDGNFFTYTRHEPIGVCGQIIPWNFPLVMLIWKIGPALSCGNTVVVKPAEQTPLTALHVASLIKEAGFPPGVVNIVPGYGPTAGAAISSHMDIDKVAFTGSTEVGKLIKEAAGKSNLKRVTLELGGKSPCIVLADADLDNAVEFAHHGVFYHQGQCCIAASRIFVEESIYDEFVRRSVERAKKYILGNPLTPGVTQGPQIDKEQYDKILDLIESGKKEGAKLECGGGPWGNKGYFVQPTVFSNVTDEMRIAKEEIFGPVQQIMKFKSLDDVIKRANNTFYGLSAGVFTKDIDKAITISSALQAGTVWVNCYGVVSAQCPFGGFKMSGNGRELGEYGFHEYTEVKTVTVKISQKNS
Experimental: (§2) ALDH1A1, ALDH3A1, and ALDH1A3 enzyme inhibition assays were performed as reported previously. Briefly, 500 ng/100 uL of ALDH1A1, ALDH3A1, and ALDH1A3 were treated with 500 nM concentration of the tested compounds and incubated for 15 min followed by the addition of reaction mixture (substrate + Substrate mixture). […] The absorbance was measured at 450 nm. [Absorbance Control–Absorbance treated/Absorbance Control]100 was used to compute the percentage of inhibition.

ALDH3A1 = target: T2, ALDH3A1 (Homo sapiens, UniProt P30838); experiment: ALDH isoform-specific enzyme inhibition assay, ALDH3A1; format: biochemical; settings: Acetaldehyde (Substrate); for inhibition at 0.5 µM: 500 nM
T2 construct: purchased R&D systems
T2 sequence (P30838 1-453): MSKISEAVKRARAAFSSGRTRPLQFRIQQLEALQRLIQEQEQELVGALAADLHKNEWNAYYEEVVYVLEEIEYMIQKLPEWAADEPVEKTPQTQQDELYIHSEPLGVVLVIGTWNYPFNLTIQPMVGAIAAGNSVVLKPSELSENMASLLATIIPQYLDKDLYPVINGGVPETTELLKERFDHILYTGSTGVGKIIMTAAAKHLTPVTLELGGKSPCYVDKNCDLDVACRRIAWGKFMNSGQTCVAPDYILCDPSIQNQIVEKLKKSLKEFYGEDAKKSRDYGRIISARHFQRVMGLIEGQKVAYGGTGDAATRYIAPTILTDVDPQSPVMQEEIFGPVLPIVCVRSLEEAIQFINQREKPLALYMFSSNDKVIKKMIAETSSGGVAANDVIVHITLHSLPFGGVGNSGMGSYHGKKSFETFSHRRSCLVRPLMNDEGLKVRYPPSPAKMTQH
Experimental: as §2

[1] = tested on: SKOV-3, MiaPaCa-2, HCT-116, HEK-293, and FHC cell lines; experiment: Cell viability assay (MTS), statements over the cell line panel; format: cell-based, human; settings: for IC50: read-out: IC50 in cancer cell lines; for IC50 / cytotoxicity against the tested cell lines: range or statement over all tested cell lines
Experimental: as §1

HCT-116 = experiment: Cell viability assay (MTS), HCT-116; format: cell-based, human; settings: 48 h, mean ± SD
Experimental: as §1

MiaPaCa-2 = experiment: Cell viability assay (MTS), MiaPaCa-2; format: cell-based, human; settings: 48 h, mean ± SD
Experimental: as §1

[2] = HEK293, human embryonic kidney cells
[3] = Homo sapiens, SK-OV-3, ovarian cancer cells
[4] = Homo sapiens, HCT-116, colon cancer cells
[5] = Homo sapiens, MIA PaCa-2, pancreatic cancer cells
[6] = Homo sapiens, Pancreatic cancer cell, ovarian, colon, and pancreatic cancer cells, 48 h MTS
[7] = Homo sapiens, Pancreatic cancer cell, 48 h

inhibition at 0.5 µM (ALDH1A1) [%] | inhibition at 0.5 µM (ALDH3A1) [%] | Molecule | IC50 (HEK-293; human embryonic kidney cells) [µM] | IC50 (SKOV-3; ovarian cancer cells) [µM] | IC50 (FHC) [µM] | % Enzyme Inhibition at 500 nM ALDH1A1 (ALDH1A1) [%] | % Enzyme Inhibition at 500 nM ALDH3A1 (ALDH3A1) [%] | IC50 ([1]; ovarian, colon, and pancreatic cancer cells, 48 h MTS) [µM] | IC50 (HCT-116; colon cancer cells) [µM] | IC50 (MiaPaCa-2; pancreatic cancer cells) [µM] | IC50 (HEK-293; [2]) [µM] | IC50 (SKOV-3; [3]) [µM] | IC50 (FHC; FHC) [µM] | melting point [°C] | IC50 (HCT-116; [4]) [µM] | IC50 (MiaPaCa-2; [5]) [µM] | IC50 / cytotoxicity against the tested cell lines ([1]; 48 h MTS) | IC50 [1, 6] [µM] | IC50 [1, 7] [µM]
– | – | 4-((5-(Trifluoromethyl)-1H-indazol-1-yl)methyl)benzylcarbamimidothioate hydrobromide [Compound 12] | 4.7 ± 1.1 | 8.2 ± 2.7 | 3.1 ± 0.8 | 10.01 ± 0.01 | −14.03 ± 0.06 | 4.7 to 33 | 5.5 ± 0.1 | 4.7 ± 0.4 | – | – | – | – | – | – | – | – | –
28.26 ± 0.01 | 22.82 ± 0.05 | O=C(OCc1ccc(CN2C(=O)C(=O)c3cc(Br)cc(Br)c32)cc1)c1ccco1 [Compound 4, 4-((5,7-Dibromo-2,3-dioxoindolin-1-yl)methyl)benzyl furan-2-carboxylate] | – | – | – | – | – | – | – | – | 5.3 ± 1.4 | 7.2 ± 1.3 | 6.7 ± 1.9 | 132 to 134 | 6.1 ± 1.2 | 7.1 ± 0.8 | – | – | –
24.82 ± 0.01 | 39.58 ± 0.05 | O=Cc1ccc(CN2C(=O)C(=O)c3cc(Br)cc(Br)c32)cc1 [Compound 5, 4-((5,7-Dibromo-2,3-dioxoindolin-1-yl)methyl)benzaldehyde] | – | – | – | – | – | – | – | – | 7.5 ± 1.8 | 8.2 ± 1.1 | 12.9 ± 3.3 | 205 to 207 | 8.8 ± 2.3 | 5.4 ± 0.9 | less cytotoxic than KS100 | – | –
– | – | Br.COc1ccc2c(c1)C(=O)C(=O)N2Cc1ccc(CSC(=N)N)cc1 [Compound 6, 4-((5-Methoxy-2,3-dioxoindolin-1-yl)methyl)benzyl carbamimidothioate hydrobromide] | – | – | – | – | – | – | – | – | > 50 | 45 ± 2.5 | > 50 | 214 to 216 | > 50 | > 50 | inert | – | –
– | – | Br.C=CCNC(=N)SCc1ccc(CN2C(=O)C(=O)c3cc(C(F)(F)F)ccc32)cc1 [Compound 7, 4-((2,3-Dioxo-5-(trifluoromethyl)indolin-1-yl)methyl)benzyl allylcarbamimidothioate hydrobromide] | – | – | – | – | – | – | – | – | 9.7 ± 1.1 | 9.1 ± 1.3 | 8.1 ± 0.8 | 122 to 124 | 12 ± 3.1 | 10.3 ± 2.4 | less cytotoxic than KS100 | – | –
– | – | COC(=O)/C=C/c1ccc(Cn2ncc3cc(C(F)(F)F)ccc32)cc1 [Compound 8, Methyl (E)-3-(4-((5-(trifluoromethyl)-1H-indazol-1-yl)methyl)phenyl)acrylate] | – | – | – | – | – | – | – | – | > 50 | > 50 | > 50 | – | > 50 | > 50 | – | > 50 | –
– | – | COC(=O)/C=C/c1ccc(Cn2cc3cc(C(F)(F)F)ccc3n2)cc1 [Compound 9, Methyl (E)-3-(4-((5-(trifluoromethyl)-2H-indazol-2-yl)methyl)phenyl)acrylate] | – | – | – | – | – | – | – | – | > 50 | > 50 | > 50 | – | > 50 | > 50 | – | > 50 | –
– | – | Br.C=CCNC(=N)SCc1ccc(Cn2ncc3cc(C(F)(F)F)ccc32)cc1 [Compound 10, 4-((5-(Trifluoromethyl)-1H-indazol-1-yl)methyl)benzyl allylcarbamimidothioate hydrobromide] | – | – | – | – | – | – | – | – | > 50 | > 50 | > 50 | 104 to 106 | > 50 | 48.4 ± 3.2 | – | – | > 50
– | – | Br.C=CCNC(=N)SCc1ccc(Cn2cc3cc(C(F)(F)F)ccc3n2)cc1 [Compound 11, 4-((5-(Trifluoromethyl)-2H-indazol-2-yl)methyl)benzyl allylcarbamimidothioate hydrobromide] | – | – | – | – | – | – | – | – | > 50 | > 50 | > 50 | 105 to 107 | > 50 | > 50 | – | – | > 50
– | – | Br.N=C(N)SCc1ccc(Cn2cc3cc(C(F)(F)F)ccc3n2)cc1 [Compound 13, 4-((5-(Trifluoromethyl)-2H-indazol-2-yl)methyl)benzyl carbamimidothioate hydrobromide] | – | – | – | – | – | – | – | – | 18.9 ± 5.1 | 22.7 ± 2.3 | 14.4 ± 2.3 | 181 to 183 | 18.2 ± 3.1 | 33.2 ± 4.4 | – | – | 4.7 to 33
– | – | Br.N=C(N)SCc1ccc(Cn2ncc3cccc(C(F)(F)F)c32)cc1 [Compound 14, 4-((7-(Trifluoromethyl)-1H-indazol-1-yl)methyl)benzyl carbamimidothioate hydrobromide] | – | – | – | – | – | – | – | – | 17.7 ± 3.7 | 16.8 ± 3.5 | 29.3 ± 4.9 | 206 to 208 | 14.2 ± 2.3 | 12.3 ± 2.7 | – | – | –
– | – | Br.N=C(N)SCc1ccc(Cn2cc3cccc(C(F)(F)F)c3n2)cc1 [Compound 15, 4-((7-(Trifluoromethyl)-2H-indazol-2-yl)methyl)benzyl carbamimidothioate hydrobromide] | – | – | – | – | – | – | – | – | > 50 | > 50 | > 50 | 195 to 197 | > 50 | > 50 | – | – | > 50
– | – | Br.COc1ccc2c(c1)c(Br)nn2Cc1ccc(CSC(=N)N)cc1 [Compound 18, 4-((3-Bromo-5-methoxy-1H-indazol-1-yl)methyl)benzyl carbamimidothioate hydrobromide] | – | – | – | – | – | – | – | – | > 50 | 42.2 ± 5.8 | > 50 | 171 to 173 | 39.2 ± 3.9 | 44.6 ± 3.7 | – | – | > 50
– | – | OCc1ccc(Cn2nc(Br)c3cc(C(F)(F)F)ccc32)cc1 [Compound 19, (4-((3-Bromo-5-(trifluoromethyl)-1H-indazol-1-yl)methyl)phenyl)methanol] | – | – | – | – | – | – | – | – | > 50 | > 50 | > 50 | – | > 50 | > 50 | – | > 50 | –
– | – | O=Cc1ccc(Cn2nc(Br)c3cc(C(F)(F)F)ccc32)cc1 [Compound 20, 4-((3-Bromo-5-(trifluoromethyl)-1H-indazol-1-yl)methyl)benzaldehyde] | – | – | – | – | – | – | – | – | > 50 | > 50 | > 50 | – | > 50 | > 50 | – | > 50 | –
– | – | CN(C)CCC(=O)c1ccc(Cn2nc(Br)c3cc(C(F)(F)F)ccc32)cc1.Cl [Compound 21, 1-(4-((3-Bromo-5-(trifluoromethyl)-1H-indazol-1-yl)methyl)phenyl)-3-(dimethylamino)propan-1-one hydrochloride] | – | – | – | – | – | – | – | – | > 50 | > 50 | > 50 | 171 to 173 | > 50 | > 50 | – | – | > 50

From PMC11243058, “Identification of Novel Isatin Derivative Bearing a Nitrofuran Moiety as Potent Multi-Isoform Aldehyde Dehydrogenase Inhibitor” (Molecules, 2024)
